Source: patent US9487470B2, “4-((substituted phenyl) difluoromethyl) phenoxy carboxylic acid derivative, and preparation method and uses thereof” (Zhejiang Hisun Pharmaceutical Co., Ltd., priority 2012, dated 2016)

Experiments:
[1] = system: hyperlipoidemia model of Goldenhamsters (blood plasma TC, TG, HDL-C, LDL-C); test: Pharmacological test group 1: effects on blood lipid levels of Goldenhamsters in a hyperlipoidemia model; type: in vivo; conditions: for HDL-C, after administration / LDL-C, after administration / TC, after administration / TG, after administration: 40 mg/kg intragastric, 1 week, high-lipid feed continued, blood plasma, x±s, asterisks = P vs before administration
Text: Animals: 134 male Goldenhamsters, aged 8 weeks, body weight 80-100 g, provided by Vital River Laboratories, Beijing. […] Kits: The kits for total cholesterol (TC), triglyceride (TG), and high density lipoprotein cholesterol (HDL-C) were provided by SYSMEX, and the kits for low density lipoprotein cholesterol (LDL-C) were provided by Shanghai Kehua Bio-engineering Co., Ltd. Apparatus: SYSMEX Automatic Biochemistry Analyzer, Bechman centrifuge, Setoris balance. The animals were acclimatized and fed for 1 week, ad lib, light cycle was 10 h/14 h, and then feeds with high lipid content were fed to the animals (formulation: 0.3% cholesterol, 20% palm oil, and 79.7% basic feeds). The animals were fed for 10 days, and were fasted at 4:00 pm on the 10th day (fasted for 16 h). On the 11th day, the animals were anaesthetized with ethyl ether, weighted, and then 0.5 ml blood was collected from vena orbitalis posterior. The blood was anticoagulated with heparin, and was centrifugated at 5000 rpm for 10 min. The blood plasma was taken, and the levels of TC, TG, HDL-C, and LDL-C in blood plasma were determined using automatic biochemistry analyzer. The animals were acclimatized and fed for 1 week, ad lib, light cycle was 10 h/14 h, and then feeds with high lipid content were fed to the animals (formulation: 0.3% cholesterol, 20% palm oil, and 79.7% basic feeds). The animals were fed for 2 weeks, and were fasted at 4:00 pm on the […] (fasted for 16 h). On the 22nd day, the animals were anaesthetized with ethyl ether, weighted, and then 0.5 ml blood was collected from vena orbitalis posterior. The blood was anticoagulated with heparin, and was centrifugated at 5000 rpm for 10 min. The blood plasma was taken, and the levels of TC, TG, HDL-C, and LDL-C in blood plasma were determined using automatic biochemistry analyzer. […] During the administration, feeds with high lipid content were continuously fed to the animals. The animals were fed for 1 week, and were fasted at 4:00 pm on the 7th day. On the 8th day, the animals were anaesthetized with ethyl ether, weighted, and then 0.5 ml blood was collected from vena orbitalis posterior. The blood was anticoagulated with heparin, and was centrifugated at 5000 rpm for 10 min. The blood plasma was taken, and the levels of TC, TG, HDL-C, and LDL-C in blood plasma were determined using automatic biochemistry analyzer. The results were represented by x±s, and t test was employed for comparing the results obtained before and after administration.

[2] = system: hyperlipoidemia model of Goldenhamsters (blood plasma TC, HDL-C, LDL-C); test: Pharmacological test group 2: effects on blood lipid levels of Goldenhamsters in hyperlipoidemia model; type: in vivo; conditions: for blood lipid-regulating effects (conclusion from table 3) / therapeutic effect compared with fenofibrate (conclusion from table 3) / effect on HDL-C, in comparison with the results before administration (in words) / effect on LDL-C, in comparison with the results before administration (in words) / effect on TC, in comparison with the results before administration (in words): 40 mg/kg; for HDL-C, after administration / LDL-C, after administration / TC, after administration: 40 mg/kg intragastric, 1 week, high-lipid feed continued, asterisks = P vs before administration; for HDL-C, after administration / LDL-C, after administration / TC, after administration / HDL-C, before administration / LDL-C, before administration / TC, before administration: blood plasma, x±s; for therapeutic effect compared with fenofibrate (conclusion from table 3): fenofibrate 40 mg/kg; for effect on HDL-C, in comparison with the results before administration (in words) / effect on LDL-C, in comparison with the results before administration (in words) / effect on TC, in comparison with the results before administration (in words): t test after vs before administration; for HDL-C, before administration / LDL-C, before administration / TC, before administration: baseline of the group before administration, high-lipid feed 2 weeks, 6 animals
Text: (§1) Animals: 120 male Goldenhamsters, aged 8 weeks, body weight 80-100 g, provided by Vital River Laboratories, Beijing.
Kits: The kits for total cholesterol (TC) and high density lipoprotein cholesterol (HDL-C) were provided by SYSMEX, and the kits for low density lipoprotein cholesterol (LDL-C) were provided by Shanghai Kehua Bio-engineering Co., Ltd.
(§2) Apparatus: SYSMEX Automatic Biochemistry Analyzer, Bechman centrifuge, Setoris balance.
(§3) The animals were acclimatized and fed for 1 week, ad lib, light cycle was 10 h/14 h, and then feeds with high lipid content were fed to the animals (formulation: 0.3% cholesterol, 20% palm oil, and 79.7% basic feeds). The animals were fed for 2 weeks, and were fasted at 4:00 pm on the 14th day (fasted for 16 h). On the 15th day, the animals were anaesthetized with ethyl ether, weighted, and then 0.5 ml blood was collected from vena orbitalis posterior. The blood was anticoagulated with heparin, and was centrifugated at 5000 rpm for 10 min. The blood plasma was taken, and the levels of TC, HDL-C, and LDL-C in blood plasma were determined using automatic biochemistry analyzer.
(§4) During the administration, feeds with high lipid content were continuously fed to the animals. The animals were fed for 1 week, and were fasted at 4:00 pm on the 7th day. On the 8th day, the animals were anaesthetized with ethyl ether, weighted, and then 0.5 ml blood was collected from vena orbitalis posterior. The blood was anticoagulated with heparin, and was centrifugated at 5000 rpm for 10 min. The blood plasma was taken, and the levels of TC, HDL-C, and LDL-C in blood plasma were determined using automatic biochemistry analyzer.
(§5) The results were represented by x±s, and t test was employed for comparing the results obtained before and after administration.

[3] = Solubility in water (remark on the test drugs); type: physicochemical; conditions: formulated with 20% solutol
[4] = system: hyperlipoidemia model of Goldenhamsters (blood plasma TC, TG, HDL-C, LDL-C); test: Pharmacodynamic test group 3: effects on blood lipid levels of Goldenhamsters in a hyperlipoidemia model; type: in vivo; conditions: for HDL-C, after administration / LDL-C, after administration / TC, after administration / TG, after administration: 40 mg/kg intragastric, 1 week, high-lipid feed continued, asterisks = P vs before administration; for HDL-C, after administration / LDL-C, after administration / TC, after administration / TG, after administration / HDL-C, before administration / LDL-C, before administration / TC, before administration / TG, before administration: blood plasma, x±s; for therapeutic effect compared with fenofibrate (conclusion from table 4): fenofibrate 40 mg/kg; for HDL-C, before administration / LDL-C, before administration / TC, before administration / TG, before administration: baseline of the group before administration, high-lipid feed 2 weeks, 6 animals
Text: as §1
Kits: The kits for total cholesterol (TC), triglyceride (TG), and high density lipoprotein cholesterol (HDL-C) were provided by SYSMEX, and the kits for low density lipoprotein cholesterol (LDL-C) were provided by Shanghai Kehua Bio-engineering Co., Ltd.
as §2
as §3, with “pm of” for “pm on”, “h). At” for “h). On”, “TC, TG,” for “TC,”
as §4, with “pm of” for “pm on”, “day. At” for “day. On”, “TC, TG,” for “TC,”
as §5

[5] = 40 mg/kg, t test after vs before administration

Structure (SMILES): CC(C)OC(=O)C(C)(C)Oc1ccc(C(F)(F)c2ccccc2Cl)cc1 [HS003-014, Isopropyl 2-(4-((2-chlorophenyl)difluoromethyl)phenoxy)-2-methylpropionate]
- regulating effects on the levels of blood lipid (conclusion from table 2) ([1]; 40 mg/kg): tend to the effects of significantly decreasing TG, TC, and LDL-C
- HDL-C, after administration [1]: 3.55 ± 0.4
- LDL-C, after administration [1]: 0.75 ± 0.17
- TC, after administration [1]: 8.20 ± 0.91
- TG, after administration [1]: 0.92 ± 0.25
- therapeutic effect compared with fenofibrate (conclusion from table 2) ([1]; 40 mg/kg, fenofibrate 40 mg/kg): outstanding therapeutical effects, and is significantly superior to fenofibrate
- effect on LDL-C, in comparison with the results before administration (in words) [1, 5]: significantly decreases
- effect on TC, in comparison with the results before administration (in words) [1, 5]: significantly decreases
- effect on TG, in comparison with the results before administration (in words) [1, 5]: significantly decreases
- blood lipid-regulating effects (conclusion from table 3) [2]: excellent blood lipid-regulating effects
- HDL-C, after administration [2]: 1.82 ± 0.18
- LDL-C, after administration [2]: 1.39 ± 0.51
- TC, after administration [2]: 9.51 ± 1
- therapeutic effect compared with fenofibrate (conclusion from table 3) [2]: outstanding therapeutic effects, and are superior to fenofibrate
- effect on HDL-C, in comparison with the results before administration (in words) [2]: increases
- effect on LDL-C, in comparison with the results before administration (in words) [2]: significantly decreases
- effect on TC, in comparison with the results before administration (in words) [2]: significantly decreases
- HDL-C, before administration [2]: 1.57 ± 0.16
- LDL-C, before administration [2]: 3.36 ± 1.19
- TC, before administration [2]: 13.97 ± 2.27
- solubility in water [3]: insoluble

Structure (SMILES): CC(C)OC(=O)C(C)(C)Oc1ccc(C(F)(F)c2ccc(Cl)cc2)cc1Cl [HS003-020, Isopropyl 2-(4-((4-chlorophenyl)difluoromethyl)-2-chlorophenoxy)-2-methylpropionate]
- regulating effects on the levels of blood lipid (conclusion from table 2) ([1]; 40 mg/kg): tend to the effects of significantly decreasing TG, TC, and LDL-C
- HDL-C, after administration [1]: 4.18 ± 0.07
- LDL-C, after administration [1]: 1.0 ± 0.35
- TC, after administration [1]: 8.88 ± 0.44
- TG, after administration [1]: 1.19 ± 0.49
- effect on HDL-C, in comparison with the results before administration (in words) [1, 5]: increase
- effect on LDL-C, in comparison with the results before administration (in words) [1, 5]: significantly decreases
- effect on TG, in comparison with the results before administration (in words) [1, 5]: significantly decreases
- blood lipid-regulating effects (conclusion from table 3) [2]: excellent blood lipid-regulating effects
- HDL-C, after administration [2]: 1.84 ± 0.14
- LDL-C, after administration [2]: 1.42 ± 0.39
- TC, after administration [2]: 10.34 ± 1.17
- therapeutic effect compared with fenofibrate (conclusion from table 3) [2]: outstanding therapeutic effects, and are superior to fenofibrate
- effect on HDL-C, in comparison with the results before administration (in words) [2]: significantly increases
- effect on LDL-C, in comparison with the results before administration (in words) [2]: significantly decreases
- effect on TC, in comparison with the results before administration (in words) [2]: significantly decreases
- HDL-C, before administration [2]: 1.45 ± 0.2
- LDL-C, before administration [2]: 3.94 ± 1.41
- TC, before administration [2]: 14.06 ± 2.17
- solubility in water [3]: insoluble

Structure (SMILES): CCOC(=O)C(CC)Oc1ccc(C(F)(F)c2ccc(Cl)cc2)cc1 (stereo not drawn) [HS003-023, Ethyl 2-(4-((4-chlorophenyl)difluoromethyl)phenoxy)butyrate]
- blood lipid-regulating effects (conclusion from table 4) ([4]; 40 mg/kg): excellent blood lipid-regulating effects
- HDL-C, after administration [4]: 2.88 ± 0.22
- LDL-C, after administration [4]: 2.26 ± 0.38
- TC, after administration [4]: 8.49 ± 1.08
- TG, after administration [4]: 2.40 ± 0.35
- therapeutic effect compared with fenofibrate (conclusion from table 4) ([4]; 40 mg/kg): outstanding therapeutic effects, and are superior to fenofibrate
- effect on LDL-C, in comparison with the results before administration (in words) [4, 5]: significantly decreases
- effect on TC, in comparison with the results before administration (in words) [4, 5]: significantly decreases
- effect on TG, in comparison with the results before administration (in words) [4, 5]: significantly decreases
- HDL-C, before administration [4]: 2.76 ± 0.28
- LDL-C, before administration [4]: 2.86 ± 0.63
- TC, before administration [4]: 12.39 ± 2.38
- TG, before administration [4]: 3.91 ± 1.07
- solubility in water [3]: insoluble

Structure (SMILES): COC(=O)C(C)Oc1ccc(C(F)(F)c2ccc(Cl)cc2)cc1 (stereo not drawn) [HS003-024, Methyl 2-(4-((4-chlorophenyl)difluoromethyl)phenoxy) propionate]
- blood lipid-regulating effects (conclusion from table 4) ([4]; 40 mg/kg): excellent blood lipid-regulating effects
- HDL-C, after administration [4]: 2.94 ± 0.41
- LDL-C, after administration [4]: 1.64 ± 0.27
- TC, after administration [4]: 7.64 ± 0.46
- TG, after administration [4]: 1.92 ± 0.38
- therapeutic effect compared with fenofibrate (conclusion from table 4) ([4]; 40 mg/kg): outstanding therapeutic effects, and are superior to fenofibrate
- effect on LDL-C, in comparison with the results before administration (in words) [4, 5]: significantly decreases
- effect on TC, in comparison with the results before administration (in words) [4, 5]: significantly decreases
- effect on TG, in comparison with the results before administration (in words) [4, 5]: significantly decreases
- HDL-C, before administration [4]: 2.76 ± 0.42
- LDL-C, before administration [4]: 2.97 ± 0.98
- TC, before administration [4]: 12.47 ± 1.85
- TG, before administration [4]: 3.96 ± 1.15
- solubility in water [3]: insoluble

Structure (SMILES): COC(=O)C(CCO)Oc1ccc(C(F)(F)c2ccc(Cl)cc2)cc1 (stereo not drawn) [HS003-031, methyl 2-(4-((4-chlorophenyl)difluoromethyl)phenoxy)-4-hydroxy-butyrate]
- blood lipid-regulating effects (conclusion from table 4) ([4]; 40 mg/kg): excellent blood lipid-regulating effects
- LDL-C, after administration [4]: 1.94 ± 0.42
- TC, after administration [4]: 11.44 ± 1.05
- TG, after administration [4]: 1.89 ± 0.38
- effect on HDL-C, in comparison with the results before administration (in words) [4, 5]: significantly increases
- effect on LDL-C, in comparison with the results before administration (in words) [4, 5]: significantly decreases
- effect on TG, in comparison with the results before administration (in words) [4, 5]: significantly decreases
- HDL-C, before administration [4]: 2.82 ± 0.34
- LDL-C, before administration [4]: 3.2 ± 0.83
- TC, before administration [4]: 12.61 ± 1.66
- TG, before administration [4]: 4.02 ± 1.33
- solubility in water [3]: insoluble
